Experimental data as given in ChEMBL document CHEMBL1201862, “PubChem BioAssay data set” (2004).
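Each compound was tested at five concentrations against cells in 96-well plates for 48 hours. GI50: concentration for 50% inhibition of growth.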 Calls of active or inactive are those of the source. Cut-off read from the data, not from the text of the source: active = GI50 up to about 1.1 µM and inactive = higher.

How the values were obtained:
Test in all cases: NCI tumour cell line growth inhibition, 48 h
[1] = test system: PC-3
[2] = test system: SNB-75
[3] = test system: MCF7
[4] = test system: M14
[5] = test system: K562
[6] = test system: SF-295
[7] = test system: SF-268
[8] = test system: LOX IMVI
[9] = test system: OVCAR-5
[10] = test system: OVCAR-3
[11] = test system: 786-0
[12] = test system: CCRF-CEM
[13] = test system: HCT-116
[14] = test system: HOP-92
[15] = test system: HCC 2998
[16] = test system: DU-145
[17] = test system: MOLT-4
[18] = test system: SNB-19
[19] = test system: ACHN
[20] = test system: Hs-578T

Measured: GI50

Cc1c2c(c(O)c3c(O)cccc13)C(=O)C1(O)C(=O)C(C(=O)NCNc3ccc(C(N)=O)cn3)=C(O)C(N(C)C)C1C2 (configuration not stated)
inactive: [1] 3.68 µM | [2] 2.84 µM | [3] 9.27 µM | [4] 3.63 µM | [5] 2.4 µM | [6] 2.87 µM | [7] 3.61 µM | [8] 4.78 µM | [9] 5.02 µM | [10] 2.49 µM | [11] 5.52 µM | [12] 2.94 µM | [13] 4.06 µM | [14] 2.01 µM | [15] 3.07 µM | [16] 4.39 µM | [17] 2.74 µM

COc1cccc(/C(Cl)=C(\C=O)c2cccc(OC)c2)c1
inactive: [2] 8.24 µM | [18] 11.3 µM | [4] 13.1 µM | [5] 4.06 µM | [6] 12.2 µM | [7] 3.88 µM | [8] 6.71 µM | [9] 19.6 µM | [10] 15.4 µM | [11] 14.8 µM | [19] 6.9 µM | [12] 3.97 µM | [13] 3.28 µM | [14] 12.4 µM | [15] 13.2 µM | [17] 7.74 µM

Cc1ccc2c(c1)NC(=O)C(N=[N+]=[N-])(c1ccccc1)C2=O (configuration not stated)
inactive: [2] 33.4 µM | [18] 30.6 µM | [4] 17 µM | [5] 21 µM | [6] 25.8 µM | [7] 45.2 µM | [8] 18.3 µM | [9] 33 µM | [10] 18.9 µM | [11] 30.5 µM | [19] 41.1 µM | [12] 28.4 µM | [13] 35.2 µM | [14] 24.5 µM | [15] > 100 µM | [17] 24.7 µM

O=C1N=C(S)NNC12c1ccccc1-c1ccccc12
inactive: [2] > 10 µM | [3] 8.71 µM | [4] > 10 µM | [5] > 10 µM | [7] > 10 µM | [8] > 10 µM | [11] > 10 µM | [20] 6.18 µM | [12] > 10 µM | [14] > 10 µM | [15] > 10 µM | [16] > 10 µM | [17] > 10 µM

Nc1c(-c2ccc(Cl)c(Cl)c2)c2ccc([N+](=O)[O-])cc2c(=O)n1-c1nc2ccccc2s1
inactive: [9] 1.92 µM | [15] 18.6 µM
active: [1] 0.311 µM | [2] 1.07 µM | [3] 0.401 µM | [18] 0.418 µM | [4] 0.675 µM | [5] 0.367 µM | [6] 0.551 µM | [7] 0.531 µM | [8] 0.538 µM | [10] 0.382 µM | [11] 0.767 µM | [19] 0.448 µM | [12] 0.223 µM | [13] 0.202 µM | [14] 0.296 µM | [16] 0.867 µM | [17] 1.12 µM

C[n+]1c(-c2ccc(/C=N/NC(=N)N/N=C/c3ccc(-c4cn5cc(Cl)ccc5[n+]4C)cc3)cc2)cn2cc(Cl)ccc21
inactive: [1] > 100 µM | [2] > 100 µM | [3] > 100 µM | [18] > 100 µM | [4] > 100 µM | [5] > 100 µM | [6] > 100 µM | [7] > 100 µM | [9] > 100 µM | [11] 73.3 µM | [20] > 100 µM | [19] > 100 µM | [12] > 100 µM | [13] > 100 µM | [15] > 100 µM | [17] > 100 µM

NNC(=O)C(=O)NN=C(C(Cl)(Cl)CO)C(Cl)(Cl)CO
inactive: [2] 32.5 µM | [18] 48.1 µM | [4] 24.4 µM | [5] 36.7 µM | [6] 66.1 µM | [7] 36.4 µM | [8] 16.9 µM | [9] 31.3 µM | [10] 25.6 µM | [11] 36.4 µM | [19] 31.3 µM | [12] 19.1 µM | [13] 20.6 µM | [14] 33.4 µM | [15] 31 µM | [17] 21.2 µM

Oc1ccc2c3c1OC1c4[nH]c5c(c4CC4(O)C(C2)N(CC2CC2)CC[C@]314)CC1(O)C2Cc3ccc(O)c4c3[C@@]1(CCN2CC1CC1)C5O4 (some centres not stated)
inactive: [1] 43.5 µM | [3] 34.7 µM | [18] 24.3 µM | [4] 17.5 µM | [5] 25.4 µM | [6] 19.6 µM | [7] 19.8 µM | [8] 27 µM | [9] 28 µM | [10] 17.6 µM | [11] 21.3 µM | [19] > 100 µM | [13] 17.5 µM | [14] 23 µM | [15] 18.7 µM | [16] 37.2 µM | [17] 22.4 µM

CC(C)(C)c1cc2c3c(c1)c(=O)c1cccc4c(O)c5cccc(c2=O)c5c-3c41
active: [15] 0.0105 µM
inactive: [2] > 100 µM | [18] > 100 µM | [4] 40.7 µM | [5] 38.5 µM | [6] 60.1 µM | [7] > 100 µM | [8] 41.2 µM | [9] 92.5 µM | [10] 40.4 µM | [11] 84.7 µM | [19] > 100 µM | [12] 45.1 µM | [13] 59.7 µM | [14] 36.6 µM | [17] 38.1 µM

CNC(=S)N1CCN(C(C)=O)C1=S
inactive: [2] 26.5 µM | [3] 42 µM | [4] 42.4 µM | [5] 54.2 µM | [6] 25.4 µM | [7] 54.8 µM | [8] 76.7 µM | [9] > 100 µM | [10] 35.4 µM | [11] > 100 µM | [20] 23.6 µM | [19] > 100 µM | [12] 46.5 µM | [13] > 100 µM | [14] 82.2 µM | [15] 31.9 µM | [16] > 100 µM | [17] 30.8 µM

CC(C)(Br)C(Br)CC/C(=C/CBr)CBr.CC(C)(Br)C(Br)CC/C(=C\CBr)CBr (configuration not stated)
inactive: [2] 3.98 µM | [3] 3.29 µM | [18] 14.4 µM | [4] 2.02 µM | [5] 2.24 µM | [6] 3.46 µM | [7] 2.21 µM | [9] 18.6 µM | [11] 1.95 µM | [20] 19.1 µM | [19] 5.83 µM | [13] 2.13 µM | [14] 4.33 µM | [15] 13.5 µM | [16] 10.5 µM | [17] 2.1 µM
active: [8] 0.13 µM | [12] 0.91 µM

CCOC(=O)Cc1nc2nn(Cc3ccccc3)cc2c(=O)[nH]1
inactive: [2] > 100 µM | [3] > 100 µM | [18] > 100 µM | [5] > 100 µM | [6] > 100 µM | [7] > 100 µM | [8] > 100 µM | [9] > 100 µM | [10] > 100 µM | [11] > 100 µM | [19] > 100 µM | [12] > 100 µM | [13] > 100 µM | [15] > 100 µM | [16] > 100 µM | [17] > 100 µM

O=c1/c(=C/c2ccccc2[N+](=O)[O-])sc2nnc(-c3ccco3)n12
inactive: [2] 25.8 µM | [18] 22.4 µM | [4] 18 µM | [5] 50.9 µM | [6] 23.6 µM | [7] 20.1 µM | [8] 16.9 µM | [9] 50.2 µM | [10] 17.7 µM | [11] 42 µM | [19] 52.5 µM | [12] 23.1 µM | [13] 26.9 µM | [14] > 100 µM | [15] 22.4 µM | [17] 31.6 µM

CO/C(=N\N=C\c1ccccc1F)c1ccncc1
inactive: [1] > 10 µM | [3] > 10 µM | [18] > 10 µM | [4] > 10 µM | [5] > 10 µM | [6] > 10 µM | [7] > 10 µM | [8] > 10 µM | [9] > 10 µM | [10] > 10 µM | [11] > 10 µM | [19] > 10 µM | [12] > 10 µM | [13] > 10 µM | [14] > 10 µM | [15] > 10 µM | [16] > 10 µM | [17] > 10 µM

C=CC[C@@H]1C=C[C@@H](C(=O)OC)n2c(=O)n(-c3ccccc3)c(=O)n21
inactive: [2] > 100 µM | [3] > 100 µM | [18] > 100 µM | [4] > 100 µM | [5] > 100 µM | [6] > 100 µM | [7] > 100 µM | [8] > 100 µM | [9] > 100 µM | [10] > 100 µM | [11] > 100 µM | [20] > 100 µM | [19] > 100 µM | [12] > 100 µM | [13] > 100 µM | [14] > 100 µM | [15] > 100 µM | [16] > 100 µM | [17] > 100 µM

N=C1c2ccccc2C(=O)c2c(NCCNCCO)ccc(O)c21
inactive: [2] 15.6 µM | [18] 8.24 µM | [4] 10.3 µM | [5] 3.64 µM | [6] 12.5 µM | [7] 3.3 µM | [8] 4.15 µM | [9] 16 µM | [10] 12.9 µM | [11] 4.73 µM | [19] 3.23 µM | [12] 9.62 µM | [13] 3.27 µM | [14] 24.9 µM | [15] 9.42 µM | [17] 1.88 µM
